The text below walks through data of ChEMBL document CHEMBL4673282, “Identification of a New Heterocyclic Scaffold for Inhibitors of the Polo-Box Domain of Polo-like Kinase 1” (J Med Chem, 2020).

Series [1] can be described thus: Drug metabolism in C57BL/6 mouse assessed as demethylation in serum at 20 mg/kg, ip measured after 15 to 240 mins by UPLC-ESI-QTOFMS analysis. In kind it is ADME, organism-based. The settings on record: in vivo, time 15-240 min.
The nature of series [2]: Drug metabolism in C57BL/6 mouse assessed as hydroxylation in serum at 20 mg/kg, ip measured after 15 mins by UPLC-ESI-QTOFMS analysis. In kind it is ADME, organism-based. The settings on record: in vivo.
Series [3] can be described thus: Toxicity in C57BL/6 mouse at 20 mg/kg, ip. Type of series: organism-based. The settings on record: in vivo.
Series [4] is described as follows: Half life in mouse cytosol. In kind it is ADME, subcellular.
A short description of series [5]: Half life in rat cytosol. In kind it is ADME, subcellular.
Series [6] is described as follows: Half life in human cytosol. In kind it is ADME, subcellular.
Series [7] deals with HeLa. Nature of the series: Induction of mitotic arrest in human HeLa cells assessed as abnormal spindle morphology at 100 uM measured after 12 hrs by DAPI staining based immunoassay. In kind it is functional, cell-based.
For series [8], the target named is T1, Serine/threonine-protein kinase PLK1 (Homo sapiens, UniProt P53350). As to the kind of experiment: Inhibition of Plk1 PBD in human HeLa cells assessed as reduction in plk1 localization to kinetochores at 100 uM measured after 12 hrs by immunostaining based assay. In kind it is cell-based.
T1 sequence (P53350 whole entry): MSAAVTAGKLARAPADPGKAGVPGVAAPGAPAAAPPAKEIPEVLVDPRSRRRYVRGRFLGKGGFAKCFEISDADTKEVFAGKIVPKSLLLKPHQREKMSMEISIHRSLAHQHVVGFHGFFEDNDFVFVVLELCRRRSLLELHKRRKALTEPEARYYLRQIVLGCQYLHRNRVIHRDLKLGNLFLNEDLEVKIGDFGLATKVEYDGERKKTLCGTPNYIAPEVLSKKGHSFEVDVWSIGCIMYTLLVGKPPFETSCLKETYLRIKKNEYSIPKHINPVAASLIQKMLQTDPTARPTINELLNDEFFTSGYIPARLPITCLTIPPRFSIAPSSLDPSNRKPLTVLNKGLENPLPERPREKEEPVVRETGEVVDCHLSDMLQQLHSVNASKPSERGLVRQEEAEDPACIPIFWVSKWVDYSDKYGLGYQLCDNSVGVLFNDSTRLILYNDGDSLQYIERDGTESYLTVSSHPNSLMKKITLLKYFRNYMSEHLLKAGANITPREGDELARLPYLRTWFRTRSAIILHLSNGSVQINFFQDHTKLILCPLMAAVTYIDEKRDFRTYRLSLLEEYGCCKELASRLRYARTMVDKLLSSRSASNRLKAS
The target in series [9] is T1, Serine/threonine-protein kinase PLK1. As to the kind of experiment: Inhibition of Plk1 PBD in human HeLa cells assessed as reduction in plk1 localization to centrosomes at 100 uM measured after 12 hrs by immunostaining based assay. Type of series: cell-based.
The subject of series [10] is HeLa. As to the kind of experiment: Antiproliferative activity against human HeLa cells assessed as reduction in cell population at 100 uM measured after 3 days by DAPI staining based phase contrast microscopic analysis relative to control. The settings on record: time 3 day. On the set-up: scale not given: the % may be the effect or the level left. In kind it is functional.

For series [11], the system named is HeLa. As to the kind of experiment: Induction of mitotic arrest in human HeLa cells assessed as apperance of aberrant chromosomal morphology at 100 uM measured after 12 hrs by DAPI staining based phase contrast microscopic analysis. Type of series: functional, cell-based.
The subject of series [12] is HeLa. Nature of the series: Induction of mitotic arrest in human HeLa cells assessed as rounded cells with apoptosis at 100 uM measured after 12 hrs by DAPI staining based phase contrast microscopic analysis. In kind it is functional, cell-based.
Series [13] has as its target T1, Serine/threonine-protein kinase PLK1. Nature of the series: Inhibition of biotin-Ahx-CETFDPPLHSpTAI-NH2 binding to recombinant human full-length HA-EGFP-tagged Plk1 PBD expressed in HEK293A cells preincubated for 30 mins followed by biotin-Ahx-CETFDPPLHSpTAI-NH2 addition and measured after 1 hr by 3,3',5,5'-tetramethylbenzidine substrate based ELISA. In kind it is cell-based, HEK293-A. A general note: ELISA stands for enzyme-linked immunosorbent assay.

Series [14] concerns the target T2, Muscarinic acetylcholine receptor M5 (Homo sapiens, UniProt P08912).
T2 sequence (P08912 whole entry): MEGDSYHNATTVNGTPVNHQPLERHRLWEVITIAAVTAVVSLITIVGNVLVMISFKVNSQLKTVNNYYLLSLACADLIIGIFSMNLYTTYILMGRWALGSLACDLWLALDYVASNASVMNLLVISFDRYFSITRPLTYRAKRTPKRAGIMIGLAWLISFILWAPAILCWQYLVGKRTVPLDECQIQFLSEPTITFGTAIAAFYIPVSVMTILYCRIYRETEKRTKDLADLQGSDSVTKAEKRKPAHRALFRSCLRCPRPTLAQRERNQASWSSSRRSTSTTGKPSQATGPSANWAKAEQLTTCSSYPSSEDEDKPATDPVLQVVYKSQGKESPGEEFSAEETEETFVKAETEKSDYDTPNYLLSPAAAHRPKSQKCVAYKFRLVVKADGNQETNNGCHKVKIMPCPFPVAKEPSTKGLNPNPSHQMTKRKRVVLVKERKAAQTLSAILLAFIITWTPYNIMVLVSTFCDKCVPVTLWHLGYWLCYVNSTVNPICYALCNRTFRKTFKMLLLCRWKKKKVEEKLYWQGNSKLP
As to the kind of experiment: Inhibition of M5 (unknown origin) at 10 uM relative to control.

In series [15] the target is T3, Muscarinic acetylcholine receptor M4 (Homo sapiens, UniProt P08173).
T3 sequence (P08173 whole entry): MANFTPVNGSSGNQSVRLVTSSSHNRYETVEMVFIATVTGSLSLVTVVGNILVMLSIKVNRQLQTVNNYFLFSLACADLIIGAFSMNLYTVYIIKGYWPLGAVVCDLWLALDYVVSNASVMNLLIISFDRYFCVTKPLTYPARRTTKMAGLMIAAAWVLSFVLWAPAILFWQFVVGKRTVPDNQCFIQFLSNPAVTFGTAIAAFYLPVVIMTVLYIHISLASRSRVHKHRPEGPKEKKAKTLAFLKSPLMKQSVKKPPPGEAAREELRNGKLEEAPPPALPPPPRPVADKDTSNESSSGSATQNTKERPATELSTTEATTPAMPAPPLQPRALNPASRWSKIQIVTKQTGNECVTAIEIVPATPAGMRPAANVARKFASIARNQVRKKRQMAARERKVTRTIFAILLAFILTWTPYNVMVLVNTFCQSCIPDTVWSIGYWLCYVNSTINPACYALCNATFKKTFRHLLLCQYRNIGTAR
As to the kind of experiment: Inhibition of M4 (unknown origin) at 10 uM relative to control.

The target of series [16] is Muscarinic acetylcholine receptor M3 (Homo sapiens, UniProt P20309). Nature of the series: Inhibition of M3 (unknown origin) at 10 uM relative to control.
Chain of Muscarinic acetylcholine receptor M3 (P20309 whole entry): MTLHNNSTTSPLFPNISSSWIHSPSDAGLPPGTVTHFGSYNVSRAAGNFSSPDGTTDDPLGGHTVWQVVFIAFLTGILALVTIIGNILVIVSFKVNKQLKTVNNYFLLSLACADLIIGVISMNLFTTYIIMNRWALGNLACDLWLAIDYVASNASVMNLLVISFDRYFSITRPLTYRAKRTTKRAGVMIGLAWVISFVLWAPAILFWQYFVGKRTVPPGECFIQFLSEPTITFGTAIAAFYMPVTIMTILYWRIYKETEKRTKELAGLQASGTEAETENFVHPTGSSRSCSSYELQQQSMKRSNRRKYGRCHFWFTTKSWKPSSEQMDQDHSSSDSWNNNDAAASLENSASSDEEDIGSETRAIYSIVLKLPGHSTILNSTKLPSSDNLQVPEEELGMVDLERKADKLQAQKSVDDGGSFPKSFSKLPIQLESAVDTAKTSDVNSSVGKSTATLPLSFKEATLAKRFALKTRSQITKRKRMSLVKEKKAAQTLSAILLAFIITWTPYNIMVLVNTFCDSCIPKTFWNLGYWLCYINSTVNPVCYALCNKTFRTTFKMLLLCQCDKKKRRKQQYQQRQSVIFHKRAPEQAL
Series [17] is described as follows: Aqueous solubility of compound. In kind it is physicochemical. The note with it: buffer.
Series [18] is described as follows: Half life in rat liver microsomes at 1 uM measured up to 60 mins in presence of NADPH generating system. The note with it: 1 h. (Liver microsomes are a subcellular fraction often used to study metabolism.)
Another series in a line: in vitro. The settings on record: PAMPA. For orientation: In PAMPA a lipid-coated filter parts donor from acceptor wells.
The conditions of series [19]: PAMPA.
Description: Permeability of the compound by PAMPA

The term inhibition denotes the drop in the measured response relative to a control, in per cent. The IC50 is the concentration that gives 50% inhibition. By solubility is commonly meant the dissolved amount per volume that the medium holds. As a reminder, the Papp is a coefficient for how fast a substance crosses the barrier.

Converted amounts (≈) assume the structure as drawn. The source made the active and inactive calls. The rule behind the calls is not given here. Where only a bound is given, the exact number is not on record here.

Description for in vitro: Permeability of the compound by PAMPA

Consider `CCCn1c(=O)c2ccccc2n2c(SC)nnc12`, for which the Drug metabolism result in series [1] and in [2] was “Metabolite_Detected” in each case. Besides, the values for the Activity entry (in series [3]; in the series on HeLa [10]) were “Non-Toxic” and 50%, respectively. The t1/2 result in [4], in [5] and in series [6] was “<= 120 min” each time. For the same compound, the outcome with HeLa [7], in the series on HeLa [11] and with HeLa [12] was Active. Further, the inhibition in series [8] amounted to 50%; in [9], 20%. For the same compound, in series [13], the half-inhibitory concentration (IC50) was greater than 50 µM.

As for `NCCCn1c(=O)c2cc(F)ccc2n2c(=S)[nH]nc12`, the inhibition at 10 µM came to 84% in series [14], 73% in series [15] and 100% in series [16]. For the same compound, the solubility in series [17] stood at 27 µg/mL (≈ 92 µM). Further, the t1/2 in [18] is greater than 30 min. The compound further displayed an apparent permeability coefficient (Papp) in “in vitro” of 16.8 ×10⁻⁶ cm/s.

As to `C[C@H]1C[C@@H]1n1c(=O)c2cc(F)ccc2n2c(=S)[nH]nc12` (relative stereo), the solubility in [17] is 13.2 µg/mL (≈ 45.5 µM). Also, the t1/2 in series [18] was greater than 30 min. The permeability in series [19] is listed as 188 10^-6 cm/s.
